Source: patent publication US20150018411A1, “COMPOUNDS AS PPAR BETA/DELTA INHIBITORS FOR TREATING PPAR BETA/DELTA-MEDIATED DISEASES” (PHILIPPS-UNIVERSITAT MARBURG, priority 2011, published 2015)
“Also recorded” adds a separate entry of the source.

Tests used:
GST-PPAR beta/delta LBD = biological target: T1, GST-PPAR beta/delta LBD (Homo sapiens, UniProt Q03181); assay: Competitive in vitro ligand binding, TR-FRET, displacement of Fluormone Pan-PPAR-Green; conditions: fluorescence ratio 520 nm/495 nm
T1 construct: GST-PPAR beta/delta LBD (GST=glutathione S-transferase); purchased Invitrogen, Darmstadt, Germany
T1 sequence (Q03181 211-439 limits assumed): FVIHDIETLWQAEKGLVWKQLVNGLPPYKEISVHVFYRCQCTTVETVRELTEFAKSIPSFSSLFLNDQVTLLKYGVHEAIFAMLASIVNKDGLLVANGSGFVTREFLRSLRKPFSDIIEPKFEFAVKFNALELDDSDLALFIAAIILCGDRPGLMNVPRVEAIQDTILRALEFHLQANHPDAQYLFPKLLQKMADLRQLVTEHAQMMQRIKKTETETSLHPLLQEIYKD
Description: FIG. 1: Competitive in vitro ligand binding to PPAR beta/delta. • The displacement of ligand Fluormone® Pan-PPAR Green from recombinant GST-PPAR beta/delta ligand binding domain (LBD) by the substances of the present invention comparative compound (CC) 2, compound 1 (A), compound 2 (B), and compound 3 (C), compound 4 (D), compound 5 (E) is determined by TR-FRET analysis. Shown is the ratio of fluorescence intensity at 520 nm (fluorescein emission, excited by terbium emission) and 495 nm (terbium emission). All data points represent average values of triplicates (+/−standard deviation).
A) Competitive ligand-binding of the substances of this invention was measured in vitro using time-resolved fluorescence resonance energy transfer (TR-FRET) by competition with the commercially available fluorescent Fluormone® Pan-PPAR-Green for binding to the fusion protein GST-PPAR beta/delta LBD (GST=glutathione S-transferase; LBD=ligand binding domain) (Invitrogen, Darmstadt, Germany) in a VICTOR3V Multilabel Counter (WALLAC 1420; PerkinElmer Life and Analytical Sciences, Rodgau, Germany). The measurement was performed in 100 mM KC, 20 mM Tris pH 7.9, 0.01% Triton X100 and 1 μg/μL bovine serum albumin. GST is known to the expert in the field as suitable fusion partner for proteins. For this purpose, the ratio of fluorescence intensities at 520 nm (fluorescein emission excited by terbium emission) and at 495 nm (terbium emission) is determined.

PPAR beta/delta = biological target: T2, PPAR beta/delta (Homo sapiens, UniProt Q03181); assay: Agonist-induced transcriptional activity, luciferase reporter in WPMY-1 cells; format: cell-based; conditions: human WPMY-1 myofibroblasts, 500 nM substance, 500 nM agonist L165041
T2 construct: expressed in transfected cells; host or cells: WPMY-1 human myofibroblasts, transient transfection with PEI
T2 sequence (Q03181 1-441): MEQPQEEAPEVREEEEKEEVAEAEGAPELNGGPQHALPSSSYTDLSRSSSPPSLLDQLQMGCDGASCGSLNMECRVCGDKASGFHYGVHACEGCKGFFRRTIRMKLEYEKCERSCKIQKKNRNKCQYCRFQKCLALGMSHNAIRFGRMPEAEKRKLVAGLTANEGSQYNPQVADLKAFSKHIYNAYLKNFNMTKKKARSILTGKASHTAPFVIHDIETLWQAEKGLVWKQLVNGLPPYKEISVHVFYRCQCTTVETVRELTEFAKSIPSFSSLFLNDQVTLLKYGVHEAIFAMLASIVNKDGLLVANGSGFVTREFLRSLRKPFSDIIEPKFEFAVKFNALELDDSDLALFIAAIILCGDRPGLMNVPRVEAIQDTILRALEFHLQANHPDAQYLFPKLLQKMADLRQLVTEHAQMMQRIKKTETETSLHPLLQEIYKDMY
Description: FIG. 4: Effect of the substances of this invention comparative compound (CC) 2, compound 1, compound 5, compound 2 and compound 3 on the agonist-induced transcriptional activity of PPAR subtypes alpha (A), beta/delta (B) and gamma (C). • WPMY-1 cells are transiently transfected with a luciferase reporter plasmid. Four hours after transfection, cells are treated for 48 hours with the respective antagonist (500 nM), followed by a treatment with 300 nM of PPAR alpha agonist GW7647 (A), 500 nM of PPAR beta/delta agonist L165041 (B) or 300 nM of PPAR gamma agonist GW1929 (C). The relative induction is represented by the luciferase activity of the agonist-treated transfected cells in relation to solvent-treated transfected cells. Asterisks (**, *) indicate significant differences to untreated cells (after t-test; **: p<0.01; *: p<0.05). GW7647 is commercially available from Sigma-Aldrich (Steinheim, Germany). L165041 and GW1929 can be obtained from Biozol (Eching, Germany).
D) The influence of substances of this invention on the agonist-induced transcriptional activity of PPAR subtypes alpha, beta/delta or gamma is determined in WPMY-1 myofibroblasts transfected transiently with a luciferase reporter plasmid (LexA system) using polyethyleneimine (PEI) according to a method known to the expert. As agonists, substances GW7647 for PPAR alpha or L165041 for PPAR beta/delta or GW1929 for PPAR gamma known to the expert are used. WPMY-1 myofibroblast cells are initially cultured for example in a 12-well plate in DMEM medium (DMEM: Dulbecco's Modified Eagle Medium) according to a method known to the expert and to a confluence of 70% to 80%, and subsequently transfected with 2.5 μg of plasmid-DNA containing the luciferase reporter plasmid, expression plasmids for the respective PPAR subtypes and the Renilla-luciferase plasmid pRL-SV40 (Promega, Mannheim, Germany), and 2.5 μl PEI (1:1000 dilution, pH 7). Four hours after transfection, the cells are treated for 48 hours with 500 nM of the substances of this invention, and 24 later with 300 nM (GW7647 or GW1929, respectively) or 500 nM (L165041) of the respective agonist at 37° C. and 5% CO2 in an incubator. The luciferase assay is performed 48 hours after the first treatment according to the commercial method of the “dual-well-system” (pjk GmbH, Kleinblittersdorf, Germany), whereby for a normalization, not only the luciferase-, but also the Renilla activity is measured. Cells are initially lysed for this measurement, and 20 μl of the lysate is transferred into a white 96-well plate (Fisher Scientific, Hamburg, Germany). […] Mean values and standard deviation are calculated from values of three independent measurements.

| SMILES | competition with Fluormone Pan-PPAR-Green for binding to GST-PPAR beta/delta LBD (GST-PPAR beta/delta LBD) | agonist-induced transcriptional activity of PPAR beta/delta (luciferase induction) (PPAR beta/delta) |
| --- | --- | --- |
| COC(=O)c1sccc1S(=O)(=O)Nc1ccc(NC(C)(C)C)cc1OC [compound 5, methyl 3-(N-(4-(tert-butylamino)-2-methoxyphenyl)sulfamoyl)thiophene-2-carboxylate] | significant competition efficacy; also recorded: significant competition efficiency | inhibited in a PPAR subtype-specific manner |
| CCCCCCNc1ccc(NS(=O)(=O)c2ccsc2C(=O)OC)c(OC)c1 [compound 1, methyl 3-(N-(4-(hexylamino)-2-methoxyphenyl)sulfamoyl)thiophene-2-carboxylate] | significant competition efficacy; also recorded: significant competition efficiency | inhibited in a PPAR subtype-specific manner |
| CCCCCCNc1ccc(NS(=O)(=O)c2ccsc2C(=O)OC)cc1OC [compound 2, methyl 3-(N-(4-(hexylamino)-3-methoxyphenyl)sulfamoyl)thiophene-2-carboxylate] | significant competition efficacy; also recorded: significant competition efficiency | inhibited in a PPAR subtype-specific manner |
